Results on seven molecules are retold here after ChEMBL document CHEMBL2029319, “Kappa agonist CovX-Bodies” (Bioorg Med Chem Lett, 2012).

As a reminder, the EC50 is the concentration that produces a half-maximal response.

One test deals with Kappa-type opioid receptor (Homo sapiens, UniProt P41145). Description: Agonist activity at recombinant kappa opioid receptor expressed in human U2OS cells coexpressing beta arrestin/EA complex assessed as beta arrestin recruitment after 60 mins by luminescence spectrophotometry. Format: functional, cell-based. On the technique in general: Activated receptors often draw arrestin, which recruitment assays turn into a signal.
Chain of Kappa-type opioid receptor (Homo sapiens, UniProt P41145) (P41145 whole entry): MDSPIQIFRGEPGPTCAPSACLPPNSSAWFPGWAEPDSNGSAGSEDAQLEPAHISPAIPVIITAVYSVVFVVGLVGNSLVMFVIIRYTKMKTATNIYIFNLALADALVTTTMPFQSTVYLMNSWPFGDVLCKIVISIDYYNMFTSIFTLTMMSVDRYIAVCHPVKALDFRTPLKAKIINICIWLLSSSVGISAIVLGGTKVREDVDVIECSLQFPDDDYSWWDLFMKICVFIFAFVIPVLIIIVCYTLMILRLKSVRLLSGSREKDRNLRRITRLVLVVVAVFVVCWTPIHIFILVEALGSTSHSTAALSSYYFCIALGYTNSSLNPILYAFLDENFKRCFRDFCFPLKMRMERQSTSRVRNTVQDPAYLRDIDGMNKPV
Regarding `CC(C)C[C@@H](NC(=O)[C@@H](Cc1ccccc1)NC(=O)[C@H](N)Cc1ccccc1)C(=O)N[C@H](CCCCN)C(=O)NCC(=O)NCC(=O)NCC(=O)NCCSC1CC(=O)N(CCC(=O)NCCOCCOCCC(=O)Nc2ccc(CCC(=O)N3CCC3=O)cc2)C1=O` (stereo partly drawn), the EC50 is 176 nM. Still for that read-out and setting: the result for `CC(C)C[C@@H](NC(=O)[C@@H](Cc1ccccc1)NC(=O)[C@H](N)Cc1ccccc1)C(=O)N[C@H](CCCCN)C(=O)NCC(=O)NCC(=O)NCC(=O)NCCSC1CC(=O)N(c2ccc(CCC(=O)N3CCC3=O)cc2)C1=O` (stereo partly drawn) reads 5 nM. On the same count and under the same terms, the result for `CC(C)C[C@@H](NC(=O)[C@@H](Cc1ccccc1)NC(=O)[C@H](N)Cc1ccccc1)C(=O)N[C@H](CCCCN)C(=O)NCC(=O)NCCSC1CC(=O)N(CCC(=O)NCCOCCOCCC(=O)Nc2ccc(CCC(=O)N3CCC3=O)cc2)C1=O` (stereo partly drawn) reads 1480 nM; that for `CC(C)C[C@@H](NC(=O)[C@@H](Cc1ccccc1)NC(=O)[C@H](N)Cc1ccccc1)C(=O)N[C@H](CCCCN)C(=O)NCC(=O)NCCSC1CC(=O)N(c2ccc(CCC(=O)N3CCC3=O)cc2)C1=O` (stereo partly drawn), 3 nM; that for `CC(C)C[C@@H](NC(=O)[C@@H](Cc1ccccc1)NC(=O)[C@H](N)Cc1ccccc1)C(=O)N[C@H](CCCCN)C(N)=O`, 3 nM.

A further test deals with Kappa-type opioid receptor (Cavia porcellus, UniProt P41144). Put plainly: Agonist activity at kappa opioid receptor in guinea pig ileum assessed as electric field-stimulated response. The format is functional, tissue-based.
Chain of Kappa-type opioid receptor (Cavia porcellus, UniProt P41144) (P41144 whole entry): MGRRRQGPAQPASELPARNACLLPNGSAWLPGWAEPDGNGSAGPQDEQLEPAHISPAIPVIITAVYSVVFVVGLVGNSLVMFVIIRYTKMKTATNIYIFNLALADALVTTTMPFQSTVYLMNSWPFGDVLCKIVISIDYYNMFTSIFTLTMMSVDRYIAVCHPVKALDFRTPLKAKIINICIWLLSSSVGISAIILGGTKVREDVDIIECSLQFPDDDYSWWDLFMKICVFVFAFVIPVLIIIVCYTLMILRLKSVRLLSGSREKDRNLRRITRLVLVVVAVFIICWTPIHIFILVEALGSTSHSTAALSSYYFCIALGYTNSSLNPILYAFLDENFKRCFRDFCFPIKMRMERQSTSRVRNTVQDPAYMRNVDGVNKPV
For `CC(C)C[C@@H](NC(=O)[C@@H](Cc1ccccc1)NC(=O)[C@H](N)Cc1ccccc1)C(=O)N[C@H](CCCCN)C(=O)N1CCC(C(=O)NCCOCCOCC(=O)NCC(=O)NCc2cn(-c3ccc(C(=O)Nc4ccc(CCC(=O)N5CCC5=O)cc4)cc3)nn2)CC1`, the EC50 was 0.1 nM. As to `CC(C)C[C@@H](NC(=O)[C@@H](Cc1ccccc1)NC(=O)[C@H](N)Cc1ccccc1)C(=O)N[C@H](CCCCN)C(N)=O`, the EC50 is 0.22 nM.

For the molecule `CC(C)C[C@@H](NC(=O)[C@@H](Cc1ccccc1)NC(=O)[C@H](N)Cc1ccccc1)C(=O)N[C@H](CCCCN)C(=O)N1CCC(CC(=O)NCCOCCOCC(=O)NCC(=O)NCc2cn(-c3ccc(C(=O)Nc4ccc(CCC(=O)N5CCC5=O)cc4)cc3)nn2)CC1`, the EC50 came out at 0.2 nM.
